Data from US6677310B1, “Ring-expanded nucleosides and nucleotides” (Nabi, priority 1999, dated 2004).

Experiments:
[1] = test system: HL-60(TB); conditions: HL-60(TB) (Leukemia), 48 h
Protocol: Briefly, cell suspensions that were diluted according to the particular cell type and the expected target cell density (5000-40,000 cells per well based on cell growth characteristics) were added by pipette (100 μl) into 96-well microtiter plates. Inoculates were allowed a preincubation period of 24h at 37° C. for stabilization. Dilutions at twice the intended test concentrations of the test compounds were added at time zero in 100 μl aliquots to the microtiter plate wells. The plates were incubated for 48 h in 5% CO2 atmosphere and 100% humidity. The cells were assayed by using the sulforhodamine B assay (Rubinstein, L. V. et al. J. Natl. Cancer Inst. 82:1113-118, 1990; Skehan, P. et al., J. Natl. Cancer Inst. 82:1107-1112, 1990). The plates were read by a plate reader. The following parameters were calculated from the optical densities:
GI50, concentration of drug that causes 50% growth inhibition; where (T−T0)/(C−T0)×100=50

[2] = test system: NCI-H522; type: cell-based, human; conditions: NCI-H522 (Non-Small Cell Lung Cancer), 48 h
[3] = molecular target: T1, adenosine deaminase (Type IV) from bovine spleen (Bos taurus, UniProt P56658); test: Inhibition of adenosine deaminase (Example 9); type: biochemical; conditions: Lineweaver-Burk plot
T1 construct: adenosine deaminase (Type IV) from bovine spleen (a suspension in 3.2 M (NH4)2SO4, pH 6); from tissue; host or cells: bovine spleen
Text: The concentration of inhibitor, the title compound, used for the present study ranged from 4.6×10^−5 to 9.2×10^−5 M. The enzyme concentration used for each of the assays was 0.0235 units/mL. As computed by the Lineweaver-Burk plot.

[4] = molecular target: T2, adenosine deaminase from calf intestinal mucosa (Bos taurus, UniProt P56658); test: Adenosine deaminase assay (Example 17); type: biochemical; conditions: Lineweaver-Burk plots; with and without preincubation
T2 construct: against adenosine deaminase from calf intestinal mucosa; from tissue; host or cells: calf intestinal mucosa
Protocol: Inhibition of adenosine deaminase (ADA) by Compound 17-1 and Compound 17-2 (see FIG. 13 for chemical structures; note that structure 1 FIG. 13 is the same as that in figure except that it is written in an anti-conformation in the former) was investigated in vitro against adenosine deaminase from calf intestinal mucosa in a 50 mM phosphate buffer (pH=7.4) at 25° C., by spectro-photometrically monitoring the rate of hydrolysis of substrate adenosine at 265 nm. Stock solutions of the substrate, enzyme, and inhibitors were prepared using a 50 mM phosphate buffer (pH 7.4). The enzyme kinetics was followed by measuring the change in optical density (decrease in absorbance) per minute of the substrate adenosine. By keeping the concentration of the inhibitor constant, and by varying the substrate concentration, a set of kinetic data was obtained. Additional sets of data were generated using different concentrations of the inhibitor. […]
(a) pre-incubation of the enzyme with the inhibitor; here the enzyme (ADA 10 μL) and inhibitor were preincubated for 10 min in a calculated amount of phosphate buffer (50 mM, pH 7.5 ) at 25° C. and the reaction was initiated by the addition of substrate, adenosine, and (b) without preincubation; here the reaction was started by addition of ADA (10 μL) to a mixture of adenosine and inhibitor in the phosphate buffer at 25° C. […]

[5] = molecular target: T3, guanine deaminase (guanase) from rabbit liver (Oryctolagus cuniculus, UniProt G1T386); test: Guanine deaminase assay (Example 17); type: biochemical; conditions: Lineweaver-Burk plots
T3 construct: from tissue; host or cells: rabbit liver
Protocol: Stock solutions of the substrate, enzyme, and inhibitors were prepared using a 50 mM Tris-HCl buffer (pH 7.4). The enzyme kinetics was followed by measuring the change in optical density (decrease in absorbance) per minute of the substrate guanine. By keeping the concentration of the inhibitor constant, and by varying the substrate concentration, a set of kinetic data was obtained. Additional sets of data were generated using different concentrations of the inhibitor. The substrate concentration in each assay ranged 6-20 μM; a total of six different concentrations were employed. The inhibitor concentration used in each assay was 30 or 40 μM. The amount of enzyme used in each assay was 0.0076 unit. The Ki for inhibition assays was computed from Lineweaver-Burk plots. The Lineweaver-Burk plot (1/V vs 1/[S]), as well as the linear regression analysis of kinetic data, were performed using the program Quattro Pro (version 6.01) for Windows.™.

T1 sequence (P56658 whole entry): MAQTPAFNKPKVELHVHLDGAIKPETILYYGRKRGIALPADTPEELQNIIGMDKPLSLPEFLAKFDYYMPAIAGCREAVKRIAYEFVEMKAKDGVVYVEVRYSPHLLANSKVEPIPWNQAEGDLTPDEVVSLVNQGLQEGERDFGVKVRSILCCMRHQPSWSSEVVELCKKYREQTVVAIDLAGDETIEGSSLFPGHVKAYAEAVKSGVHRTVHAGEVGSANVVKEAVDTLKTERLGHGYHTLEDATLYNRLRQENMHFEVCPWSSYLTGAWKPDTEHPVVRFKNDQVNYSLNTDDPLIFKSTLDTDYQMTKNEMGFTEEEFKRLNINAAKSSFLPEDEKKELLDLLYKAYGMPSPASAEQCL
T2 sequence (P56658 whole entry): as above
T3 sequence (G1T386 1-454): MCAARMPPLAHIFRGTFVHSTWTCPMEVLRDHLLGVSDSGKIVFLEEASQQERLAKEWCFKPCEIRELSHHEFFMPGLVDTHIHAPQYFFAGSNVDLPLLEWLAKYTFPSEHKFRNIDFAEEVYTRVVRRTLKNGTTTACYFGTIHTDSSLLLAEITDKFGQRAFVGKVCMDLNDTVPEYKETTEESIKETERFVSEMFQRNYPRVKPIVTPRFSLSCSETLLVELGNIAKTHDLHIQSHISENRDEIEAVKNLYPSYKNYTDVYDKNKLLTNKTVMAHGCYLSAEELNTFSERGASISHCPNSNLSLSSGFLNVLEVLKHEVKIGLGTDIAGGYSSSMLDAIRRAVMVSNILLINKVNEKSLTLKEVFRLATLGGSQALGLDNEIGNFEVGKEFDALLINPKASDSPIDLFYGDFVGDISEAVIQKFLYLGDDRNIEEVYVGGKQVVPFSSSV

N=c1nc(N)c2ncn([C@@H]3O[C@H](COC(=O)c4ccccc4)[C@@H](OC(=O)c4ccccc4)[C@H]3OC(=O)c3ccccc3)c2c(N)n1 [4,8-Diamino-6H-6-imino-1(2′,3′,5′-tri-O-benzoyl-β-D-ribofuranosyl)imidazo[4,5-e][1,3]diazepine]
GI50 [1]: 4.01 µM
TGI [1]: 18.3 µM
CC50 ([1]; read-out: LC50): 83.7 µM

N=c1[nH]c(=O)c2ncn([C@@H]3O[C@H](CO)[C@@H](O)[C@H]3O)c2c(=O)[nH]1 [Compound 14-1, 6-Imino-6H-1-β-D-ribofuranosyl-4,5,7,8-tetrahydroimidazo[4,5-e][1,3]diazepine-4,8-dione]
GI50 [2]: > 100 µM
TGI [2]: >100 µM
CC50 ([2]; read-out: LC50 (the source's name)): > 100 µM

N=c1nc(N)c2ncn([C@@H]3O[C@H](CO)[C@@H](O)[C@H]3O)c2c(N)n1 [Compound 14-2, 4,8-Diamino-6H-6-imino-1-β-D-ribofuranosylimidazo[4,5-e][1,3]diazepine]
mode of inhibition of adenosine deaminase [3]: competitive inhibitor
mode of inhibition of adenosine deaminase [4]: competitive inhibitor
inhibition of guanine deaminase (guanase), mode [5]: inactive
